Structures can show the parent of a compound that is named as a salt.
System: eNOS promoter
Test: Activation of eNOS transcription (eNOS promoter firefly luciferase reporter gene assay)
Type: cell-based
Details: human endothelial cell line stably transfected with eNOS promoter-luciferase construct; 18 h incubation; determined graphically; read-out: EC50 values of transcription induction ratios (TIR)
Method: Activation of eNOS transcription was measured as described in detail by Li et al., “Activation of protein kinase C alpha and/or epsilon enhances transcription of the human endothelial nitric oxide synthase gene”, Mol. Pharmacol. 53 (1998) 630. Briefly, a 3.5 kB long fragment 5′ of the starting codon of the eNOS gene was cloned, sequenced and cloned in firefly luciferase expression plasmids to monitor activation of the eNOS promoter by reporter gene activity. A human endothelial cell line stable transfected and expressing this promoter-reporter construct was used for compound testing. Cells were incubated for 18 h with the compounds.
All compounds were dissolved in sterile dimethyl sulfoxide (DMSO). A final concentration of 0.5% DMSO in complete medium was allowed. Induction of reporter gene expression in these cells was measured using a standard luciferase assay system (Promega, Cat. No. E150) according to the manufacturer's instructions. Luciferase induction in cells incubated with compounds were compared to those incubated with solvent alone. The ratio of both activities (transcription induction ratio, TIR) was plotted as a function of compound concentration. […] EC50 values of transcription induction ratios as a function of compound concentration were determined graphically.

In the case of `CN(C)C(=O)[C@@H]1C[C@H]1c1ccc(-c2ccccc2F)nc1` (relative stereo) [Example 49, trans-2-[6-(2-Fluoro-phenyl)-pyridin-3-yl]-cyclopropanecarboxylic acid dimethylamide trifluoroacetic acid salt], the EC50 is reported as < 500 nM.

With `O=C([C@@H]1C[C@H]1c1ccc(-c2ccc(F)cc2)nc1)N1CCCC1` (relative stereo) [Example 46, {trans-2-[6-(4-fluoro-phenyl)-pyridin-3-yl]-cyclopropyl}-(pyrrolidin-1-yl)-methanone trifluoroacetic acid salt] the EC50 was 500 to 5000 nM.

Reference: US8299102B2, “Heteroarylcyclopropanecarboxamides and their use as pharmaceuticals” (Sanofi, priority 2006, dated 2012)
